The structures appear in SMILES notation. Values after ≈ are worked out from the molar mass of the structure shown. Where two headings read alike, the source gives them in different places.

One test concerns Past. haemolytica PA5. Description: MIC against veterinary bacteria in vitro. To be noted: Mannheimia haemolytica, PA5, 18 h.
Test [1] deals with M. suipneumoniae NCTC 10110. The test is described as follows: MIC against mycoplasma in vitro. Type of test: cell-based. To be noted: Mesomycoplasma hyopneumoniae, NCTC10110, 144 h.
The next test relates to E. coli E1. The test is described as follows: MIC against veterinary bacteria in vitro. To be noted: Escherichia coli, E1, 18 h.
For test [2], the system named is Strep. suis (group D) SPS11. Description: MIC against veterinary bacteria in vitro. To be noted: Streptococcus suis, 18 h.
Protocol: (§1) The activity of the compounds of the Examples against various veterinarily important bacteria, was assayed in vitro using two-fold serial dilutions in Diagnostic Sensitivity Test Agar inoculated with 10^4 organisms.
The subject of test [3] is M. suipneumoniae PW/C/210. The test is described as follows: MIC against mycoplasma in vitro. The test is classed as cell-based. To be noted: Mesomycoplasma hyopneumoniae, 144 h.
For another test, the system named is M. dispar NCTC 10125. Description: MIC against mycoplasma in vitro. The test is classed as cell-based. To be noted: 144 h.
For a further test, the system named is E. coli NCTC 10418. Description: MIC against veterinary bacteria in vitro. To be noted: Escherichia coli, NCTC10418, 18 h.
The next test deals with M. gallisepticum S6. The test is described as follows: MIC against mycoplasma in vitro. The test is classed as cell-based. To be noted: Mycoplasmoides gallisepticum.
The test system of a further test is M. suipneumoniae UCD 1. The test is described as follows: MIC against mycoplasma in vitro. The test is classed as cell-based. To be noted: Mesomycoplasma hyopneumoniae, UCD1, 144 h.
Another test relates to Staph. aureus Oxford. The test is described as follows: MIC against human bacteria in vitro. Type of test: cell-based. To be noted: Staphylococcus aureus; Staph. aureus Oxford; 5% chocolated horse blood agar, 18 hours; read-out: MIC.
A further test concerns Bord. bronchiseptica B09. The test is described as follows: MIC against veterinary bacteria in vitro. To be noted: Bordetella bronchiseptica, B09, 18 h.
The subject of the next test is M. suipneumoniae JF 435. Description: MIC against mycoplasma in vitro. Type of test: cell-based. To be noted: Mesomycoplasma hyopneumoniae, JF435, 144 h.
In test [4] the test system is M. suipneumoniae J2206/183^b. Description: MIC against mycoplasma in vitro. To be noted: Mesomycoplasma hyopneumoniae, 144 h. The test is classed as cell-based.
The test system of another test is M. bovis NCTC 10131. The test is described as follows: microbe, parasite or virus in culture. Type of test: cell-based. To be noted: NCTC10131, 144 h.
The subject of another test is Past. multocida PA1. Description: MIC against veterinary bacteria in vitro. To be noted: Pasteurella multocida, PA1, 18 h.
Test [5] concerns M. hyosynoviae ATCC 25591. Description: MIC against mycoplasma in vitro. To be noted: 144 h. Type of test: cell-based.
A further test concerns M. pneumoniae ATCC 15492. The test is described as follows: MIC against mycoplasma in vitro. To be noted: Mycoplasmoides pneumoniae, ATCC15492, 144 h. The test is classed as cell-based.
The test system of test [6] is Staph. aureus B4 (pen. resistant). Description: MIC against veterinary bacteria in vitro. To be noted: Staphylococcus aureus, 18 h.
Protocol: as §1
For the next test, the system named is B. subtilis ATCC 6633. Description: MIC against veterinary bacteria in vitro. To be noted: Bacillus subtilis, ATCC6633, 18 h.
For a further test, the system named is Strep. agalactiae SPA1. Description: MIC against veterinary bacteria in vitro. To be noted: Streptococcus agalactiae, SPA1, 18 h.
In the next test the test system is Bord. bronchiseptica B08. Description: MIC against veterinary bacteria in vitro. To be noted: Bordetella bronchiseptica, B08, 18 h.
The next test relates to P. mirabilis 889. The test is described as follows: MIC against human bacteria in vitro. The test is classed as cell-based. To be noted: Proteus mirabilis; P. mirabilis 889; 5% chocolated horse blood agar, 18 hours; read-out: MIC.
For test [7], the system named is Pasteurella multocida 1633. The test is described as follows: MIC against human bacteria in vitro. Type of test: cell-based. To be noted: Pasteurella multocida 1633; 5% chocolated horse blood agar, 18 hours; read-out: MIC.
[8] abbreviates: M. suipneumoniae PW/C/210, 6 days, 37° C., read-out: MIC.
The mark [9] stands for this setting: M. dispar NCTC 10125, 6 days, 37° C., read-out: MIC.
The mark [10] stands for this setting: 144 h, M. gallisepticum S6, 6 days, 37° C., read-out: MIC.
Where [11] appears, read: M. pneumoniae ATCC 15492, 6 days, 37° C., read-out: MIC.

Protocol for B. subtilis ATCC 6633: as §1
Protocol for Bord. bronchiseptica B08: as §1
Protocol for Bord. bronchiseptica B09: as §1
Protocol for E. coli E1: as §1
Protocol for E. coli NCTC 10418: as §1
Protocol for Past. haemolytica PA5: as §1
Protocol for Past. multocida PA1: as §1
Protocol for Strep. agalactiae SPA1: as §1

Take `CSc1cccc(-c2cnc(/C=C(\C)C[C@@H]3OC[C@H](C[C@@H]4O[C@H]4[C@@H](C)[C@H](C)O)[C@@H](O)[C@H]3O)o2)c1` [Example 22, 5-m-Methylthiophenyl-2-(1-normon-2-yl)oxazole A]: the MIC is 80 µg/mL (≈ 163 µM) in the test with Past. haemolytica PA5; 1 µg/mL (≈ 2.04 µM) in test [1]; > 80 µg/mL against E. coli E1; 20 µg/mL (≈ 40.8 µM) in test [2]; 0.5 µg/mL (≈ 1.02 µM) in test [3] (setting [8]); 0.5 µg/mL (≈ 1.02 µM) in the test on M. dispar NCTC 10125 (setting [9]). The MIC in the test on E. coli NCTC 10418 is > 80 µg/mL; in the test with M. gallisepticum S6 (setting [10]), 5 µg/mL (≈ 10.2 µM); with M. suipneumoniae UCD 1 it was 1 µg/mL (≈ 2.04 µM); in the test with Staph. aureus Oxford, 4 µg/mL (≈ 8.17 µM); against Bord. bronchiseptica B09, 40 µg/mL (≈ 81.7 µM); in the test with M. suipneumoniae JF 435 it was 1 µg/mL (≈ 2.04 µM). Also, the MIC in test [4] was found to be 1 µg/mL (≈ 2.04 µM); in the test with M. bovis NCTC 10131, 0.05 µg/mL (≈ 0.102 µM); with Past. multocida PA1, 20 µg/mL (≈ 40.8 µM); in test [5], 1 µg/mL (≈ 2.04 µM); in the test on M. pneumoniae ATCC 15492 (setting [11]), 5 µg/mL (≈ 10.2 µM); in test [6], 1.25 µg/mL (≈ 2.55 µM). Also, the MIC against B. subtilis ATCC 6633 was 0.625 µg/mL (≈ 1.28 µM); with Strep. agalactiae SPA1 it was 10 µg/mL (≈ 20.4 µM); in the test with Bord. bronchiseptica B08, > 80 µg/mL; with P. mirabilis 889, > 128 µg/mL; in test [7] it was 32 µg/mL (≈ 65.4 µM).

Take `C/C(=C\c1ncc(-c2cccc(S(C)(=O)=O)c2)o1)C[C@@H]1OC[C@H](C[C@@H]2O[C@H]2[C@@H](C)[C@H](C)O)[C@@H](O)[C@H]1O` [Example 23, 5-m-Methylsulphonylphenyl-2-(1-normon-2-yl) oxazole A]: the MIC against Past. haemolytica PA5 was 80 µg/mL (≈ 153 µM); in [1], 1 µg/mL (≈ 1.92 µM); against E. coli E1, > 80 µg/mL; in test [2], 10 µg/mL (≈ 19.2 µM); in test [3] (setting [8]) it was 0.5 µg/mL (≈ 0.959 µM); in the test with M. dispar NCTC 10125 (setting [9]), 0.5 µg/mL (≈ 0.959 µM). Also, the MIC with E. coli NCTC 10418 is > 80 µg/mL; against M. gallisepticum S6 (S6, 144 h) it was 1 µg/mL (≈ 1.92 µM); against M. suipneumoniae UCD 1, 1 µg/mL (≈ 1.92 µM); with Staph. aureus Oxford, 4 µg/mL (≈ 7.67 µM); in the test with Bord. bronchiseptica B09, 40 µg/mL (≈ 76.7 µM); in the test with M. suipneumoniae JF 435, 1 µg/mL (≈ 1.92 µM). Moreover, the MIC in test [4] came out at 1 µg/mL (≈ 1.92 µM); against M. bovis NCTC 10131, 0.025 µg/mL (≈ 0.0479 µM); against Past. multocida PA1, 5 µg/mL (≈ 9.59 µM); in test [5], 1 µg/mL (≈ 1.92 µM); against M. pneumoniae ATCC 15492, 1 µg/mL (≈ 1.92 µM); in test [6], 5 µg/mL (≈ 9.59 µM). The MIC in the test with B. subtilis ATCC 6633 is 1.25 µg/mL (≈ 2.4 µM); against Strep. agalactiae SPA1 it was 2.5 µg/mL (≈ 4.79 µM); against Bord. bronchiseptica B08 it was > 80 µg/mL; with P. mirabilis 889, > 64 µg/mL; in [7], 2 µg/mL (≈ 3.83 µM).

With `C/C(=C\c1ncc(-c2ccc(S(=O)(=O)N(C)C)cc2)o1)C[C@@H]1OC[C@H](C[C@@H]2O[C@H]2[C@@H](C)[C@H](C)O)[C@@H](O)[C@H]1O` [Example 24, 5-p-Dimethylaminosulphonylphenyl-2-(1-normon-2-yl)oxazole A], the MIC against Past. haemolytica PA5 was 40 µg/mL (≈ 72.6 µM); in test [1], 0.25 µg/mL (≈ 0.454 µM); against E. coli E1 it was > 80 µg/mL; in test [2], 2.5 µg/mL (≈ 4.54 µM); in test [3] (setting [8]) it was 0.1 µg/mL (≈ 0.182 µM); against M. dispar NCTC 10125, 0.1 µg/mL (≈ 0.182 µM). The MIC is > 80 µg/mL in the test with E. coli NCTC 10418; 0.5 µg/mL (≈ 0.908 µM) in the test with M. gallisepticum S6 (setting [10]); 0.25 µg/mL (≈ 0.454 µM) in the test with M. suipneumoniae UCD 1; 4 µg/mL (≈ 7.26 µM) in the test with Staph. aureus Oxford; 40 µg/mL (≈ 72.6 µM) in the test on Bord. bronchiseptica B09; 0.25 µg/mL (≈ 0.454 µM) against M. suipneumoniae JF 435. Besides, the MIC came out at 0.25 µg/mL (≈ 0.454 µM) in test [4]; 0.025 µg/mL (≈ 0.0454 µM) with M. bovis NCTC 10131; 5 µg/mL (≈ 9.08 µM) against Past. multocida PA1; 0.25 µg/mL (≈ 0.454 µM) in [5]; 0.5 µg/mL (≈ 0.908 µM) in the test on M. pneumoniae ATCC 15492 (setting [11]); 1.25 µg/mL (≈ 2.27 µM) in test [6]. The MIC against B. subtilis ATCC 6633 is 0.312 µg/mL (≈ 0.567 µM); against Strep. agalactiae SPA1, 1.25 µg/mL (≈ 2.27 µM); in the test on Bord. bronchiseptica B08, 80 µg/mL (≈ 145 µM); in the test with P. mirabilis 889, > 64 µg/mL; in test [7], 16 µg/mL (≈ 29.1 µM).

Consider `C/C(=C\c1ncc(-c2cccc([S+](C)[O-])c2)o1)C[C@@H]1OC[C@H](C[C@@H]2O[C@H]2[C@@H](C)[C@H](C)O)[C@@H](O)[C@H]1O` (some centres unmarked) [Example 25, 5-m-Methylsulphinylphenyl-2-(1-normon-2-yl)oxazole A], for which the MIC against Past. haemolytica PA5 is 80 µg/mL (≈ 158 µM); in test [1], 1 µg/mL (≈ 1.98 µM); in the test on E. coli E1, > 80 µg/mL; in [2], 20 µg/mL (≈ 39.6 µM); in test [3] it was 0.25 µg/mL (≈ 0.494 µM); with M. dispar NCTC 10125 it was 0.25 µg/mL (≈ 0.494 µM). Also, the MIC against E. coli NCTC 10418 is > 80 µg/mL; in the test with M. gallisepticum S6 (S6, 144 h), 2.5 µg/mL (≈ 4.94 µM); in the test on M. suipneumoniae UCD 1, 1 µg/mL (≈ 1.98 µM); with Staph. aureus Oxford it was 4 µg/mL (≈ 7.91 µM); in the test with Bord. bronchiseptica B09, 40 µg/mL (≈ 79.1 µM); in the test on M. suipneumoniae JF 435 (M. suipneumoniae JF 435, 6 days, 37° C., read-out: MIC), 0.5 µg/mL (≈ 0.989 µM). The MIC in test [4] came out at 1 µg/mL (≈ 1.98 µM); against M. bovis NCTC 10131, 0.025 µg/mL (≈ 0.0494 µM); against Past. multocida PA1, 5 µg/mL (≈ 9.89 µM); in test [5] it was 1 µg/mL (≈ 1.98 µM); against M. pneumoniae ATCC 15492, 2.5 µg/mL (≈ 4.94 µM); in test [6], 10 µg/mL (≈ 19.8 µM). Also, the MIC in the test on B. subtilis ATCC 6633 was 2.5 µg/mL (≈ 4.94 µM); against Strep. agalactiae SPA1, 2.5 µg/mL (≈ 4.94 µM); with Bord. bronchiseptica B08, > 80 µg/mL; in the test with P. mirabilis 889, > 128 µg/mL; in test [7], 16 µg/mL (≈ 31.6 µM).

These data come from US5041567A, “Antibacterial monic acid derivatives” (Beecham Group plc, priority 1982, dated 1991).
